The values below come from article PMC8199216 (International Journal of Molecular Sciences, 2021).

Molecules are shown by their SMILES. Several values for one entry are separate records, joined by “and”; a condition that tells them apart may be missing. Equal entries are not always repeated.

Assay [1] deals with T1, His-Spindlin1(49–262) (Homo sapiens, UniProt Q9Y657). Kind of assay: biochemical.
Method: (§3) To investigate the influence of these modifications on the Spindlin1 inhibitory activity, the fluorescence polarization assay established earlier [31] was used to determine the potency of the compounds.
(§4) Fluorescence polarization assays were carried out as described before [31]. […] For the controls, a buffer solution with the same DMSO concentration as the inhibitor solutions was added to the plate instead of the inhibitor solution, the negative control contained the H3(1–14)K4me3-Fluorescein without Spindlin1. The blank control contained buffer solution with DMSO. Every inhibitor concentration and the controls were done in triplicates. Fluorescence polarization values (mP) were determined after blank correction as IS−G×IP/IS+G×IP×1000 , where G is a device-specific factor and IS and IP are the fluorescence intensities of the S and P plane, respectively. […] Curve fitting was carried out using GraphPad Prism 7, applying a non-linear sigmoidal fit with a variable slope.
The next assay concerns the target T2, Human G9a (913–1193) (Homo sapiens, UniProt Q96KQ7).
T2 construct: Catalytic domains of Human G9a (913–1193); made in house
T2 sequence (Q96KQ7 913-1193): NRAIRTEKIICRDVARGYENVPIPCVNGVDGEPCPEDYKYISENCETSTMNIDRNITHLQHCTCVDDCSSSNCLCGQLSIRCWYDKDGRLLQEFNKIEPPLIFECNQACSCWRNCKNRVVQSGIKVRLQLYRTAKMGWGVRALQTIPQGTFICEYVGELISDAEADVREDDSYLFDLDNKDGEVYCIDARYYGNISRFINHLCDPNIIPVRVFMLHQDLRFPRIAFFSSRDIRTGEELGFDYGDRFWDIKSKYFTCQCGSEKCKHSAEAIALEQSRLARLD
Kind of assay: Coupled enzyme fluorescent histone methyltransferase assay (SAM-SAH conversion). Type of assay: biochemical. To be noted: fluorescence based coupled enzyme assay. The protocol: (§1) Full length of S. solfataricus S-adenosylhomocysteine hydrolase (SAHH) was cloned, expressed, and purified using the published protocol.
(§2) The assay was performed using the previously published protocol. Tested compounds were pre-dissolved in assay buffer (20 mM HEPES pH 7.5, 50 mM NaCl, 0.01% Triton X-100, 3 mM MgCl2, 0.1 mg/mL BSA) with 5 μM of purified SAHH, 1 unit of ADA, 10 μM of H3, and 5 nM of either G9a or GLP as 30 μL in black 96-well plate. […] After incubation for 10 min at room temperature, thiol fluorescent probe IV (20 μM, 50 μL) was added.

For a further assay, the target named is T3, GLP (982–1266) (Homo sapiens, UniProt Q9H9B1).
T3 construct: GLP (982–1266) were cloned, expressed, and purified; made in house
T3 sequence (Q9H9B1 982-1266): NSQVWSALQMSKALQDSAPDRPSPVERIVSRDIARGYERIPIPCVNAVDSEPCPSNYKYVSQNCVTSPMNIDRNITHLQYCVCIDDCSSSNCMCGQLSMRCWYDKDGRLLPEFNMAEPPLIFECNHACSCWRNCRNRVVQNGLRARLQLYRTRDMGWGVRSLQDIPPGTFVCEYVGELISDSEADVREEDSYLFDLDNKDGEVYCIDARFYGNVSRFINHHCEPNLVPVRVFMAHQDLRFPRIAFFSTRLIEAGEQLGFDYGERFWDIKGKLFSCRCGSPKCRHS
Described as above. The assay is classed as biochemical. Particulars: fluorescence based coupled enzyme assay. The protocol: as §1, §2

Assay [2] addresses T1, His-Spindlin1(49–262). Particulars: fluorescence polarization.
Method: as §3, §4
The mark [3] stands for this setting: read-out: Spin1 inhibition in percentage at specified concentration.

T1 sequence (Q9Y657 49-262): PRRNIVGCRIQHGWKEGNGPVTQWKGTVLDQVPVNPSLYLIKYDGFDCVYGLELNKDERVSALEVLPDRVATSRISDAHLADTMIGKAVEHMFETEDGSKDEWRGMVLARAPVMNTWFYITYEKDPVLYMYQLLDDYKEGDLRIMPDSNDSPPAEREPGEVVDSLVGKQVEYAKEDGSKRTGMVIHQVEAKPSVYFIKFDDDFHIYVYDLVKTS

Consider `COc1cc2c(cc1OCCCN1CC[C@@H](O)C1)N=C(N)C21CCCC1` [1q (R)], for which the values for the IC50 entry against Spindlin1 (Spin1) and at His-Spindlin1(49–262) [1] were “(R): 470 ± 27” and 0.47 µM, respectively.

For the compound `CCOc1cc2c(cc1OCCCN1CCCC1)N=C(N)C21CCCC1` [1g], the IC50 at GLP amounted to 2.97 µM; at G9a it was 0.243 µM; against Human G9a (913–1193), 0.243 µM; against GLP (982–1266) it was 2.97 µM.

In the case of `COc1cc2c(cc1OCCCN1CCC(=O)C1)N=C(N)C21CCCC1` [1b], at His-Spindlin1(49–262) [2], the “Spindlin1 inhibitory activity (in words)” value is recorded as “weakly active”. For the same compound, in the assay on Spindlin1 (Spin1), the “% inhibition at 100 μM” value worked out at 81% @ 100 μM [d]. Besides, the inhibition at 100 µM at His-Spindlin1(49–262) [1] (setting [3]) was 81%.

Take `COc1cc2c(cc1OCCCN1CCC(O)C1)N=C(N)C21CCCC1` (stereo not shown): the IC50 entry on Spindlin1 (Spin1) is “(S): 478 ± 34”.

Regarding `COc1c(OCCCN2CCCC2)cc2c(c1C#N)C1(CCCC1)C(N)=N2` [1h], the figures for the IC50 against Spindlin1 (Spin1) and against His-Spindlin1(49–262) [1] were 3.9 µM and 3.9 ± 0.7 µM, respectively.

For the compound `COc1c(OCCCN2CCCC2)cc2c(c1Cl)C1(CCCC1)C(N)=N2` [1i], the IC50 was above 20 µM against GLP; above 20 µM against G9a; above 20 µM at Human G9a (913–1193); above 20 µM on GLP (982–1266); 1.6 µM against Spindlin1 (Spin1); 1.6 ± 0.2 µM against His-Spindlin1(49–262) [1].

With `COc1cc2c(cc1OCCN1CCCC1)N=C(N)C21CCCCC1` [1d], the “Spindlin1 inhibitory activity (in words)” value at His-Spindlin1(49–262) [2] is given as “Inactive”.

Consider `COc1cc2c(cc1OCCCN1CCC(O)C1)N=C(N)C21CCCC1` (racemic) [1q (rac)], for which the figures for the IC50 against Human G9a (913–1193), against GLP (982–1266) and on His-Spindlin1(49–262) [1] were 2.32 µM, 4.43 µM and 0.584 µM, respectively.

On to `CCC1(C)C(N)=Nc2cc(OCCCN3CCCC3)c(OC)cc21` (stereo not shown) [1r], for which the IC50 is 3.19 µM at GLP; 3.19 µM against G9a; 3.19 µM on Human G9a (913–1193); 3.18 µM at GLP (982–1266); 0.408 µM at Spindlin1 (Spin1); 0.408 ± 0.035 µM against His-Spindlin1(49–262) [1].

Take `COc1cc2c(cc1OCCCN1CC[C@H](O)C1)N=C(N)C21CCCC1` [1q (S)]: half-maximal inhibition on His-Spindlin1(49–262) [1] (IC50) was put at 0.478 µM.

Regarding `CCOc1cc2c(cc1OCCCN1CCCC1)N=C(N)C21CCCCC1` [1l], the IC50 against Spindlin1 (Spin1) worked out at 0.567 µM; against His-Spindlin1(49–262) [1], 0.567 ± 0.035 µM.

For `CCC1(C)C(N)=Nc2cc(OCCCN3CC[C@@H](C)C3)c(OC)cc21` (stereo partly shown) [1t], the IC50 was above 20 µM against GLP; above 20 µM at G9a; above 20 µM at Human G9a (913–1193); above 20 µM against GLP (982–1266); 0.467 µM against Spindlin1 (Spin1); 0.467 ± 0.015 µM against His-Spindlin1(49–262) [1]. At His-Spindlin1(49–262) [2], the “Spindlin1 inhibitory activity (in words)” value is “nanomolar range”.

For `COc1cc2c(cc1OCCCN1CCC(O)C1)N=C(N)C21CCCC1` (racemic), the IC50 result is on record as “(rac): 4432” on GLP, “(rac): 2321” at G9a and “(rac): 584 ± 31” on Spindlin1 (Spin1).

As for `COc1cc2c(cc1OCCCN1CCC(CO)C1)N=C(N)C21CCCC1` (stereo not shown) [1u], the IC50 against GLP was above 20 µM; against G9a it was above 20 µM; against Human G9a (913–1193), above 20 µM; on GLP (982–1266), above 20 µM; at Spindlin1 (Spin1) it was 1.25 µM; on His-Spindlin1(49–262) [1], 1.25 ± 0.05 µM.

In the case of `COc1cc2c(cc1OCCCN1CCCC1)N=C(N)C21CCCCC1` [1n], the IC50 was 0.527 µM against GLP; 0.779 µM at G9a; 0.779 µM against Human G9a (913–1193); 0.527 µM at GLP (982–1266); 0.255 µM against Spindlin1 (Spin1); 0.255 ± 0.035 µM against His-Spindlin1(49–262) [1].

As for `COc1c(OCCCN2CCCC2)cc2c(c1OC)C1(CCCC1)C(N)=N2` [1j], the values for the IC50 against Spindlin1 (Spin1) and at His-Spindlin1(49–262) [1] were 2.5 µM and 2.5 ± 0.2 µM, respectively.

As to `CCC1(C)C(N)=Nc2cc(OCCCN3Cc4ccccc4C3)c(OC)cc21` (stereo not shown) [1s], the IC50 against GLP was above 20 µM; at G9a it was above 20 µM; against Human G9a (913–1193) it was above 20 µM; against GLP (982–1266) it was above 20 µM; at Spindlin1 (Spin1), 0.36 µM; on His-Spindlin1(49–262) [1], 0.36 ± 0.02 µM. Further, on His-Spindlin1(49–262) [2], the “Spindlin1 inhibitory activity (in words)” value is recorded as “nanomolar range”.

For the compound `COc1cc2c(cc1OCCN1CCCC1)N=C(N)C21CCC1` [1e], the “Spindlin1 inhibitory activity (in words)” value on His-Spindlin1(49–262) [2] was “Inactive”.

Turning to `CC(C)Oc1cc2c(cc1OCCCN1CCCC1)N=C(N)C21CCC1` [1m], the “Spindlin1 inhibitory activity (in words)” value on His-Spindlin1(49–262) [2] is “micromolar range”. For the same compound, the results for the IC50 on Spindlin1 (Spin1) and against His-Spindlin1(49–262) [1] were 3.3 µM and 3.3 ± 0.47 µM, respectively.

Consider `COc1cc2c(cc1OCCCN1CCCC1)N=C(N)C21CCCC1` [1f], for which the IC50 was found to be 0.334 µM at GLP, 0.431 µM against G9a, 0.431 µM against Human G9a (913–1193) and 0.334 µM on GLP (982–1266).

Regarding `COc1cc2c(cc1OCCCN1CCCC1)N=C(N)C2(C)C` [1p], the IC50 is 0.47 µM at GLP; 0.759 µM at G9a; 0.759 µM against Human G9a (913–1193); 0.47 µM against GLP (982–1266); 0.157 µM at Spindlin1 (Spin1); 0.157 ± 0.012 µM against His-Spindlin1(49–262) [1].

As for `COc1cc2c(cc1OCCCCN1CCCC1)N=C(N)C21CCCCC1` [1c], the IC50 against GLP, against G9a, against Human G9a (913–1193) and on GLP (982–1266) was above 20 µM each time. Besides, the “Spindlin1 inhibitory activity (in words)” value on His-Spindlin1(49–262) [2] is “inactive”. Also, the “% inhibition at 50 μM” value in the assay with Spindlin1 (Spin1) amounted to 42% @ 50 μM [d]. Besides, the inhibition at 50 µM on His-Spindlin1(49–262) [1] (setting [3]) was 42%.

`COc1c(OCCCN2CCCC2)cc2c(c1C(C)=O)C1(CCCC1)C(N)=N2` [1k]: the IC50 at Spindlin1 (Spin1) stood at 11.8 ± 0.21 µM; on His-Spindlin1(49–262) [1], 11.8 µM.

As for `CCC1(CC)C(N)=Nc2cc(OCCCN3CCCC3)c(OC)cc21` [1o], the concentration for half-maximal inhibition (IC50) is above 20 µM at GLP; above 20 µM at G9a; above 20 µM against Human G9a (913–1193); above 20 µM at GLP (982–1266); 1.21 µM and 1.21 ± 0.09 µM at Spindlin1 (Spin1); 1.21 ± 0.09 µM against His-Spindlin1(49–262) [1].

For the compound `CCOc1c(OCCCN2CCCC2)cc2c(c1OCC)C1(CCCC1)C(N)=N2` [1a], on His-Spindlin1(49–262) [2], the “Spindlin1 inhibitory activity (in words)” value is given as “weakly active”. In addition, the “% inhibition at 25 μM” value with Spindlin1 (Spin1) was 70% @ 25 μM [d]. Besides, the inhibition at 25 µM on His-Spindlin1(49–262) [1] (setting [3]) stood at 70%.
